Test results taken from patent US20250034216A1, “STEREOSELECTIVE COVALENT LIGANDS FOR ONCOGENIC AND IMMUNOLOGICAL PROTEINS” (The Scripps Research Institute, priority 2021, published 2025).

Tests used:
Assay in all cases: IA-DTB cysteine engagement
Format in all cases: binding
[1] = biological target: T1, NUDT16L1_C88 (Homo sapiens, UniProt Q9BRJ7); conditions: 22Rv1 cells, relative to DMSO; for % engagement NUDT16L1_88: 5 μM probe, 1 h (FIG. 5B); for % engagement NUDT16L1_C88: 20 μM probe, 1 h
T1 construct: endogenous in cells; host or cells: 22Rv1
T1 sequence (Q9BRJ7 whole entry): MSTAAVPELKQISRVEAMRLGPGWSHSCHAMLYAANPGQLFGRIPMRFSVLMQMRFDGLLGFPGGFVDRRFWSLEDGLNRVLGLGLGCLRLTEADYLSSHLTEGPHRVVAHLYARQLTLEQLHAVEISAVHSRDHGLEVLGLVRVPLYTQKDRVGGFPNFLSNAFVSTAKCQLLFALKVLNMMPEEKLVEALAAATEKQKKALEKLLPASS
Experimental: (§1) Sample preparation: Cells (adherent: 15 cm dishes, suspension: 2 million cells/mL) were treated with electrophilic probes in situ for indicated times and concentrations, washed with ice-cold PBS, and flash frozen in liquid nitrogen. Cell pellets were lysed by sonication (8 pulses, 40% power) in 500 μL ice-cold PBS supplemented with cOmplete protease inhibitors (1 tablet/10 mL of PBS). Whole cell lysates protein content was measured using a standard DC protein assay (Bio-Rad) and 500 μL (2 mg/mL protein content) were treated with 5 μL of 10 mM 1A-DTB (in DMSO) for 1 h at ambient temperature with occasional vortexing. Samples were methanol-chloroform precipitated with the addition of 500 μL ice-cold MeOH and 200 μL CHCl3, vortexed, and centrifuged (10 min, 10,000 g). Without disrupting the protein disk, both top and bottom layers were aspirated and the protein disk was washed with 1 mL ice-cold MeOH and centrifuged (10 min, 10,000 g). The pellets were allowed to air dry, and then re-suspended in 90 μL buffer (9 M urea, 10 mM DTT, 50 mM TEAB pH 8.5). Samples were reduced by heating at 65 C for 20 minutes and water bath sonicated as needed to resuspend the protein pellets, followed by alkylation via addition of 10 μL (500 mM) iodoacetamide and incubated at 37 C for 30 min with shaking. Samples were briefly centrifuged, and probe sonicated once more to ensure complete resuspension, and then diluted with 300 μL buffer (50 mM TEAB pH 8.5) to reach final concentration of 2 M urea. Trypsin (4 μL of 0.25 μg/μL in trypsin resuspension buffer with 25 mM CaCl2)) was added to each sample and digested at 37 C for 2 h to overnight. Digested samples were then diluted with 300 μL wash buffer (50 mM TEAB pH 8.5, 150 mM NaCl, 0.2% NP-40) containing streptavidin-agarose beads (50 μL of 50% slurry in wash buffer) and were rotated at room temperature for 2 hours. Enriched samples were pelleted by centrifugation (2000 g, 2 min) and transferred to BioSpin columns and washed (3×1 mL wash buffer, 3×1 mL PBS, 3×1 mL water). Enriched peptides were eluted by 300 μL 50% acetonitrile with 0.1% formic acid and eluate was evaporated to dryness via speedvac. IA-DTB labeled and enriched peptides were resuspended in 100 μL EPPS buffer (200 mM, pH 8.0) with 30% acetonitrile, vortexed, and water bath sonicated. Samples were TMT labeled with 3 μL of corresponding TMT tag (5 mg tag resuspended in 256 μL acetonitrile), vortexed, and incubated at room temperature for 1 hour. TMT labeling was quenched with the addition of hydroxylamine (5 μL 5% solution in H2O) and incubated for 15 minutes at room temperature. Samples were then acidified with 5 μL formic acid, combined and dried using a SpeedVac. Samples were desalted via Sep-Pak and then high pH fractionated.
(§2) Data processing: Cysteine engagement ratios (probe vs DMSO) were calculated for each peptide-spectra match by dividing each TMT reporter ion intensity by the average intensity for the channels corresponding to DMSO treatment. Peptide-spectra matches were then grouped based on protein ID and residue number (e.g., PSME1 C22), excluding peptides with summed reporter ion intensities for the DMSO channels <10,000, coefficient of variation for DMSO channels >0.5, and non-tryptic peptide sequences. TMT reporter ion intensities were normalized to the median summed signal intensity across channels.
(§3) Filtering of cysteine data: Replicates were combined based on cell line and treatment condition (probe, concentration, duration) by averaging cysteine engagement ratios across all experiments.

[2] = biological target: T2, ABCB8_C461 (Homo sapiens, UniProt Q9NUT2); conditions: 22Rv1 cells, 20 μM probe, 1 h, relative to DMSO
T2 construct: endogenous in cells; host or cells: 22Rv1
T2 sequence (Q9NUT2 26-735): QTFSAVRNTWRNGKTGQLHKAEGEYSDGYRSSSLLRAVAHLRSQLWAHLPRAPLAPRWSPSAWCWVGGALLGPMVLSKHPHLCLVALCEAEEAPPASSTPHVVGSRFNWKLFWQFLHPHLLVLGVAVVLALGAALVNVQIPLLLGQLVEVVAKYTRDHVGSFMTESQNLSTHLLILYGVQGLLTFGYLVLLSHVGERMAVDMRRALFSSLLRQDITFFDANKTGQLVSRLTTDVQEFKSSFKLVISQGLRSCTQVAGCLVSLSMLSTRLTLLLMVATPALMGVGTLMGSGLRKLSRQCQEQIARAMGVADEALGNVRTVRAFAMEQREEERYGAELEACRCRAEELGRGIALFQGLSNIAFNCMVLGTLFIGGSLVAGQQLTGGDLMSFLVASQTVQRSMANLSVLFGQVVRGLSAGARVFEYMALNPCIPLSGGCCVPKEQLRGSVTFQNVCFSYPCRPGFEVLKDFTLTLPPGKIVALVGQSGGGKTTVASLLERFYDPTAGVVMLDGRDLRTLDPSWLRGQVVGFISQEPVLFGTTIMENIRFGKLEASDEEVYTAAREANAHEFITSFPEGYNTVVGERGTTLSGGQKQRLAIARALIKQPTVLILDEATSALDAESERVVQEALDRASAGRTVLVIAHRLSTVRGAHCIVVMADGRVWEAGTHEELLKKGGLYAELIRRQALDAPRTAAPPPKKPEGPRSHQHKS
Experimental: as §1, §2, §3

[3] = biological target: T3, ANKRD46_C61 (Homo sapiens, UniProt Q86W74); conditions: 22Rv1 cells, 20 μM probe, 1 h, relative to DMSO
T3 construct: endogenous in cells; host or cells: 22Rv1
T3 sequence (Q86W74 1-228): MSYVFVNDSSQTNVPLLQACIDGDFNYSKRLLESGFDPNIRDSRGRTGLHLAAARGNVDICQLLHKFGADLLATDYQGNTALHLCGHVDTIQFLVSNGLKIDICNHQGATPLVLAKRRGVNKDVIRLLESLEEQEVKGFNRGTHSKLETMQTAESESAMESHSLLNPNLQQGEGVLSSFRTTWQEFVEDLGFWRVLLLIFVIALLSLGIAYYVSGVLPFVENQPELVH
Experimental: as §1, §2, §3

[4] = biological target: T4, HSD11B2_C264 (Homo sapiens, UniProt P80365); conditions: 22Rv1 cells, 20 μM probe, 1 h, relative to DMSO
T4 construct: endogenous in cells; host or cells: 22Rv1
T4 sequence (P80365 1-405): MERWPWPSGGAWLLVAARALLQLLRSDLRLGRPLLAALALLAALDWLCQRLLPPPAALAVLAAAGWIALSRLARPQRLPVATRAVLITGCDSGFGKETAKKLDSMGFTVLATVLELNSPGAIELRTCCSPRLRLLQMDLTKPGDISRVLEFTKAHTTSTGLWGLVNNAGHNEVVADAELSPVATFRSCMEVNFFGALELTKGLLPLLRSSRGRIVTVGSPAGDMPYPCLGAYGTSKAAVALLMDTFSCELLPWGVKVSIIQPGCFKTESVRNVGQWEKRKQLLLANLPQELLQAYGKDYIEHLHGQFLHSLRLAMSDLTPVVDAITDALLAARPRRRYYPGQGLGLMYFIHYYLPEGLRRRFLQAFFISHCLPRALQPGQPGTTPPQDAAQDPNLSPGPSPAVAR
Experimental: as §1, §2, §3

[5] = biological target: T5, LAPTM4A_C23 (Homo sapiens, UniProt Q15012); conditions: 22Rv1 cells, 20 μM probe, 1 h, relative to DMSO
T5 construct: endogenous in cells; host or cells: 22Rv1
Experimental: as §1, §2, §3

## CC#CC(=O)N1C[C@H](c2ccc(Br)cc2)[C@@H]1C(=O)Nc1cccc2cccnc12 [MY-45B, (2R,3S)-3-(4-bromophenyl)-1-(but-2-ynoyl)-N-(quinolin-8-yl)azetidine-2-carboxamide]
[1]
  % engagement NUDT16L1_88: 9.38%

## C=CC(=O)N1C[C@H](c2ccc(Br)cc2)[C@H]1C(=O)Nc1cccc2cccnc12 [MY-3A, (2S,3S)-1-acryloyl-3-(4-bromophenyl)-N-(quinolin-8-yl)azetidine-2-carboxamide]
[2]
  % engagement ABCB8_C461: 32.5%
[3]
  % engagement ANKRD46_C61: 5.5%
[4]
  % engagement HSD11B2_C264: 23.5%
[5]
  % engagement LAPTM4A_C23: 48%
[1]
  % engagement NUDT16L1_C88: 14.5%

## C=CC(=O)N1C[C@H](c2ccc(Br)cc2)[C@@H]1C(=O)Nc1cccc2cccnc12 [MY-1B, (2R,3S)-1-acryloyl-3-(4-bromophenyl)-N-(quinolin-8-yl)azetidine-2-carboxamide]
[2]
  % engagement ABCB8_C461: 0%
[3]
  % engagement ANKRD46_C61: 28.5%
[4]
  % engagement HSD11B2_C264: 22%
[5]
  % engagement LAPTM4A_C23: 54.5%
[1]
  % engagement NUDT16L1_88: 67.63%
  % engagement NUDT16L1_C88: 88.5%

## C=CC(=O)N1C[C@H](c2ccc(Br)cc2)[C@H]1C(=O)Nc1cccc2cccnc12 [MY-3B, (2S,3S)-1-acryloyl-3-(4-bromophenyl)-N-(quinolin-8-yl)azetidine-2-carboxamide]
[2]
  % engagement ABCB8_C461: 66.5%
[3]
  % engagement ANKRD46_C61: 66.5%
[4]
  % engagement HSD11B2_C264: 90.25%
[5]
  % engagement LAPTM4A_C23: 72%
[1]
  % engagement NUDT16L1_C88: 87.5%

## C=CC(=O)N1C[C@@H](c2ccc(Br)cc2)[C@H]1C(=O)Nc1cccc2cccnc12 [MY-1A, (2S,3R)-1-acryloyl-3-(4-bromophenyl)-N-(quinolin-8-yl)azetidine-2-carboxamide]
[2]
  % engagement ABCB8_C461: −3%
[3]
  % engagement ANKRD46_C61: 17.5%
[4]
  % engagement HSD11B2_C264: 30.5%
[5]
  % engagement LAPTM4A_C23: 67%
[1]
  % engagement NUDT16L1_C88: 33.25%
